From patent US9643957B2, “Heterocyclic compounds having cholesterol 24-hydroxylase activity” (TAKEDA PHARMACEUTICAL COMPANY LIMITED, priority 2012, dated 2017)

The molecules below were run against T1, human CH24H (Homo sapiens, UniProt Q9Y6A2) (assay: Measurement of CH24H inhibitory activity (24-HC produced from [14C] cholesterol by human CH24H lysate)). Details: 1 μM test compound, [14C] cholesterol 15 μM, 37° C. for 5 hr, read-out: Inhibitory Rate in 1 μM (%).
T1 construct: Using Full-Length Mammalian Gene Collection No. 4819975 (Invitrogen) as a template; made in house; host or cells: FreeStyle 293-F cells, transient transfection with pcDNA3.1(+)/hCH24H; lysate supernatant, not purified
T1 sequence (Q9Y6A2 whole entry): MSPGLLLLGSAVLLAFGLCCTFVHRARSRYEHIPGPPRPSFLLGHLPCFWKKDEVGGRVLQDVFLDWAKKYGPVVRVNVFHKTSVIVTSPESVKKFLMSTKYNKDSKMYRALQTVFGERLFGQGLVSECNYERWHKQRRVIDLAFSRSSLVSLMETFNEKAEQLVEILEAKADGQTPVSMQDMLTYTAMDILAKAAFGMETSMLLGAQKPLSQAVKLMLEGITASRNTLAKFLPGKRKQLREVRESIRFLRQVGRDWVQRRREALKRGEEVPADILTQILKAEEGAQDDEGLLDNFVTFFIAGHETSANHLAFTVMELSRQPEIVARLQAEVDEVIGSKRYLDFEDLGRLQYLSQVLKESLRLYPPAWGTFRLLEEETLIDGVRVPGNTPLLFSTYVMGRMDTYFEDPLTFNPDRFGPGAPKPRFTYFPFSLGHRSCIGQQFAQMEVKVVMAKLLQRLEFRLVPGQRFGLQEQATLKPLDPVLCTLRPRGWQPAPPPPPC
Assay type: biochemical
Protocol: The expression of human CH24H was performed using FreeStyle 293 Expression System (Invitrogen). […] After transfection, the cells were cultured at 37° C., 8% CO2 with shaking at 125 rpm for 2 days. The cells were collected by centrifugation, and suspended in a suspension buffer (100 mM potassium phosphate (pH 7.4), 0.1 mM EDTA, 1 mM DTT, 20% Glycerol). The suspended product was disrupted by a polytron homogenizer (manufactured by Kinematica), and centrifuged at 9000×g for 10 min, and the supernatant was collected. The collected supernatant was cryopreserved (−80° C.) as a human CH24H lysate standard product.
For the measurement of CH24H inhibitory activity, using the human CH24H lysate prepared in Experimental Example 2, the amount of 24-HC produced from cholesterol by catalytic activity of CH24H was measured in the presence of a test compound, and compared with that measured in the absence of the test compound. That is, a test compound solution at various concentrations was mixed with a reaction buffer (50 mM potassium phosphate containing 0.1% BSA and Complete, EDTA-free, pH 7.4) and human CH24H lysate. Then, [^14C] cholesterol (53 mCi/mmol specific activity, 15 μM) was added, and CH24H reaction was performed at 37° C. for 5 hr. After completion of the reaction, a quenching solution consisting of chloroform/methanol/distilled water (2:2:1 v/v) was added, and the resulting 24-HC was extracted by shaking. The extract was applied to silica gel thin layer chromatography (ethyl acetate:toluene=4:6), and the obtained ^14C-24HC fraction was measured with BAS2500 (Fujifilm Corporation).
The inhibitory rate (%) was calculated from the ratio of radioactivity in the presence of a test compound relative to the radioactivity in the absence of the test compound.

Q: With `O=C(NC1CCOCC1)C1CCN(c2cnccc2-n2cc(Cl)cn2)CC1(F)F` (centres unmarked) [Example 79, 1-(4-(4-chloro-1H-pyrazol-1-yl)pyridin-3-yl)-3,3-difluoro-N-(tetrahydro-2H-pyran-4-yl)piperidine-4-carboxamide] as the molecule, how does the inhibition at 1 µM read?
A: 93%

Q: With `Cc1cnn(-c2ccncc2N2CCC3(CCN(C)C3=O)CC2)c1` [Example 82, 2-methyl-8-(4-(4-methyl-1H-pyrazol-1-yl)pyridin-3-yl)-2,8-diazaspiro[4.5]decan-1-one] as the molecule, how does the inhibition at 1 µM read?
A: 97%

Q: `CN(C)C(=O)C1CCN(c2cnccc2-n2cc(C#N)cn2)CC1` [Example 83, 1-(4-(4-cyano-1H-pyrazol-1-yl)pyridin-3-yl)-N,N-dimethylpiperidine-4-carboxamide] was tested. Which inhibition at 1 µM did it give?
A: 74%

Q: Which inhibition at 1 µM does the source give for `Cc1cnn(-c2ccncc2N2CCC(C(=O)N(C)C3CC3)CC2)c1` [Example 86, N-cyclopropyl-N-methyl-1-(4-(4-methyl-1H-pyrazol-1-yl)pyridin-3-yl)piperidine-4-carboxamide] here?
A: 98%

Q: For `Cc1nnc(-c2ccncc2N2CCC(C(=O)N3CCC[C@@H]3C#N)CC2)s1` [Example 87, (2R)-1-((1-(4-(5-methyl-1,3,4-thiadiazol-2-yl)pyridin-3-yl)piperidin-4-yl)carbonyl)pyrrolidine-2-carbonitrile], which inhibition at 1 µM is on record?
A: 98%

Q: For `Cc1cnn(-c2ccncc2N2CCC(C(=O)N3CCC[C@H]3C(N)=O)CC2)c1` [Example 114, 1-((1-(4-(4-methyl-1H-pyrazol-1-yl)pyridin-3-yl)piperidin-4-yl)carbonyl)-L-prolinamide], which inhibition at 1 µM is on record?
A: 86%

Q: `NC(=O)[C@@H]1CC(F)(F)CN1C(=O)C1CCN(c2cnccc2-n2cc(Cl)cn2)CC1` [Example 117, 1-((1-(4-(4-chloro-1H-pyrazol-1-yl)pyridin-3-yl)piperidin-4-yl)carbonyl)-4,4-difluoro-L-prolinamide] was tested. Which inhibition at 1 µM did it give?
A: 85%

Q: `N#C[C@@H]1CC(F)(F)CN1C(=O)C1CCN(c2cnccc2-n2cc(Cl)cn2)CC1` [Example 119, (2S)-1-((1-(4-(4-chloro-1H-pyrazol-1-yl)pyridin-3-yl)piperidin-4-yl)carbonyl)-4,4-difluoropyrrolidine-2-carbonitrile] was tested. Which inhibition at 1 µM did it give?
A: 93%

Q: For `Cc1cnn(-c2ccncc2N2CCC(C(=O)N3CC(F)(F)C[C@H]3C#N)CC2)c1` [Example 121, (2S)-4,4-difluoro-1-((1-(4-(4-methyl-1H-pyrazol-1-yl)pyridin-3-yl)piperidin-4-yl)carbonyl)pyrrolidine-2-carbonitrile], which inhibition at 1 µM is on record?
A: 80%

Q: With `Cc1nnc(-c2ccncc2N2CCC(C(=O)N3CCC[C@]3(C)C#N)CC2)s1` [Example 128, (2R)-2-methyl-1-((1-(4-(5-methyl-1,3,4-thiadiazol-2-yl)pyridin-3-yl)piperidin-4-yl)carbonyl)pyrrolidine-2-carbonitrile] as the molecule, how does the inhibition at 1 µM read?
A: 97%

Q: How did the inhibition at 1 µM turn out when `Cc1nnc(-c2ccncc2N2CCC(F)(C(=O)N3CCC[C@@H]3C#N)CC2)s1` [Example 131, (2R)-1-((4-fluoro-1-(4-(5-methyl-1,3,4-thiadiazol-2-yl)pyridin-3-yl)piperidin-4-yl)carbonyl)pyrrolidine-2-carbonitrile] was run?
A: 87%

Q: With `CO[C@@H]1C[C@H](C#N)N(C(=O)C2CCN(c3cnccc3-n3cc(C)cn3)CC2)C1` [Example 138, (2R,4R)-4-methoxy-1-((1-(4-(4-methyl-1H-pyrazol-1-yl)pyridin-3-yl)piperidin-4-yl)carbonyl)pyrrolidine-2-carbonitrile] as the molecule, how does the inhibition at 1 µM read?
A: 93%

Q: With `N#C[C@H]1CC(F)(F)CN1C(=O)C1CCN(c2cnccc2-c2ccccn2)CC1` [Example 143, (2R)-1-((1-(2,4′-bipyridin-3′-yl)piperidin-4-yl)carbonyl)-4,4-difluoropyrrolidine-2-carbonitrile] as the molecule, how does the inhibition at 1 µM read?
A: 98%

Q: Which inhibition at 1 µM does the source give for `CO[C@H]1C[C@H](C#N)N(C(=O)C2CCN(c3cnccc3-n3cc(C)cn3)CC2)C1` [Example 144, (2R,4S)-4-methoxy-1-((1-(4-(4-methyl-1H-pyrazol-1-yl)pyridin-3-yl)piperidin-4-yl)carbonyl)pyrrolidine-2-carbonitrile] here?
A: 98%

Q: With `Cc1ccc(-c2ccncc2N2CCN(C(=O)CC3CC3)CC2)cc1` [Example 148, 2-cyclopropyl-1-(4-(4-(4-methylphenyl)pyridin-3-yl)piperazin-1-yl)ethanone] as the molecule, how does the inhibition at 1 µM read?
A: 92%

Q: `O=C(C1CC1)N1CCN(c2cnccc2-c2ccccc2)CC1` [Example 152, cyclopropyl(4-(4-phenylpyridin-3-yl)piperazin-1-yl)methanone] was tested. Which inhibition at 1 µM did it give?
A: 90%

Q: With `C[C@@H]1CN(c2cncnc2-c2ccccc2)CCN1C(=O)OCc1ccccc1` [Example 158, benzyl (2R)-2-methyl-4-(4-phenylpyrimidin-5-yl)piperazine-1-carboxylate] as the molecule, how does the inhibition at 1 µM read?
A: 85%

Q: With `O=C(CC1CC1)N1C[C@@H]2C[C@H]1CN2c1cnccc1-c1ccccc1` [Example 161, 2-cyclopropyl-1-((1S,4S)-5-(4-phenylpyridin-3-yl)-2,5-diazabicyclo[2.2.1]hept-2-yl) ethanone] as the molecule, how does the inhibition at 1 µM read?
A: 56%

Q: `O=C(C1CC1)N1CCN(c2cncc(F)c2-c2ccccc2)CC1` [Example 165, cyclopropyl(4-(5-fluoro-4-phenylpyridin-3-yl)piperazin-1-yl)methanone] was tested. Which inhibition at 1 µM did it give?
A: 86%

Q: For `O=C(OCc1ccccc1)N1CCN(c2cncnc2-c2ccccc2)CC1` [Example 169, benzyl 4-(4-phenylpyrimidin-5-yl)piperazine-1-carboxylate], which inhibition at 1 µM is on record?
A: 97%

Q: With `C[C@H]1CN(c2cncnc2-c2ccccc2)CCN1C(=O)CC1CC1` [Example 170, 2-cyclopropyl-1-((2S)-2-methyl-4-(4-phenylpyrimidin-5-yl)piperazin-1-yl)ethanone] as the molecule, how does the inhibition at 1 µM read?
A: 86%

Q: How did the inhibition at 1 µM turn out when `O=C(NCc1ccccc1)N1CCN(c2cncnc2-c2ccccc2)CC1` [Example 175, N-benzyl-4-(4-phenylpyrimidin-5-yl)piperazine-1-carboxamide] was run?
A: 95%

Q: `CCNC(=O)N1CCN(c2cncnc2-c2ccccc2)CC1` [Example 176, N-ethyl-4-(4-phenylpyrimidin-5-yl)piperazine-1-carboxamide] was tested. Which inhibition at 1 µM did it give?
A: 82%

Q: For `CNC(=O)N1CCN(c2cncnc2-c2ccccc2)CC1` [Example 177, N-methyl-4-(4-phenylpyrimidin-5-yl)piperazine-1-carboxamide], which inhibition at 1 µM is on record?
A: 92%

Q: How did the inhibition at 1 µM turn out when `O=C(CCn1ncc2ccccc21)N1CCN(c2cnccc2-c2ccccc2)CC1` [Example 183, 3-(1H-indazol-1-yl)-1-(4-(4-phenylpyridin-3-yl)piperazin-1-yl)propan-1-one] was run?
A: 92%

Q: Which inhibition at 1 µM does the source give for `O=C(NCc1ccccn1)N1CCN(c2cncnc2-c2ccccc2)CC1` [Example 188, 4-(4-phenylpyrimidin-5-yl)-N-(pyridin-2-ylmethyl)piperazine-1-carboxamide] here?
A: 81%

Q: How did the inhibition at 1 µM turn out when `O=C(N1CCN(c2cnccc2-c2ccccc2)CC1)N1CCC1c1ccc(F)cc1` (centres unmarked) [Example 190, (2-(4-fluorophenyl)azetidin-1-yl) (4-(4-phenylpyridin-3-yl)piperazin-1-yl)methanone] was run?
A: 87%

Q: For `O=C(NC1CC1)C1CCN(c2cncnc2-c2ccc(F)cc2)CC1` [Example 193, N-cyclopropyl-1-(4-(4-fluorophenyl)pyrimidin-5-yl)piperidine-4-carboxamide], which inhibition at 1 µM is on record?
A: 90%

Q: `N#C[C@H]1CCCN1C(=O)N1CCN(c2cncnc2-c2ccc(F)cc2)CC1` [Example 198, (2R)-1-((4-(4-(4-fluorophenyl)pyrimidin-5-yl)piperazin-1-yl)carbonyl)pyrrolidine-2-carbonitrile] was tested. Which inhibition at 1 µM did it give?
A: 90%
